Earlier results in patent EP0580641B1, “NEW THALIDOMIDE DERIVATIVES, METHOD OF MANUFACTURE AND USE THEREOF IN MEDICAMENTS” (Grünenthal GmbH, priority 1991, dated 1992).

Details: cited from Arch. Pharm. 321, 371 (1988)

Wasserlöslichkeit: 0,012 mg/ml
SMILES: O=C1CCC(N2C(=O)c3ccccc3C2=O)C(=O)N1 (stereo not shown) [Thalidomid, 3-Phthalimido-piperidin-2,6-dion]
